One data set has as its target T1, Human D4.4 receptor (Homo sapiens, UniProt P21917).
T1 construct: expressed in transfected cells; host or cells: CHO cells
T1 sequence (P21917 1-419): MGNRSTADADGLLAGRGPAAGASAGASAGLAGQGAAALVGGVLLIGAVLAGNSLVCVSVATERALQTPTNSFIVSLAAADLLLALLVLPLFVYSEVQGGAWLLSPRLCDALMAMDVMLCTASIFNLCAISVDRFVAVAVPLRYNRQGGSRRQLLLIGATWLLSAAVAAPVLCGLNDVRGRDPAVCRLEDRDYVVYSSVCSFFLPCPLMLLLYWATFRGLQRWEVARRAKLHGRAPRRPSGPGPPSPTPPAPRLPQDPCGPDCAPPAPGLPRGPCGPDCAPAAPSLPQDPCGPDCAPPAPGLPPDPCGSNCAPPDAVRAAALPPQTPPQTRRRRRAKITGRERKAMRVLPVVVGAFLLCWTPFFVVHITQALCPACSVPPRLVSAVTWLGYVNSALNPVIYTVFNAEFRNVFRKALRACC
Nature of the data set: Dopamine D4 receptor binding (head prints D). Conditions: head prints only D. As to the method:
(§1) Dopamine and serotonin receptor binding assays were performed in a standard manner with the incubation of membrane preparations in an assay buffer in the presence of a known radioactively labeled specific ligand for the receptor subtypes. Nonspecific binding was determined by assessing binding in the presence of excess ligand. Specific binding was measured as the total labeled ligand bound after the nonspecific binding was subtracted. The effect of the tested agents was measured by determining the competition for the receptor binding across a concentration range. Subsequently, an IC50 was determined for the agents tested. More specific details are provided below for several of the assays performed.
Aliquots of transfected CHO cell membrane preparations corresponding to 100 μg protein are incubated for 60 min at 22° C. in 250 μl of 50 mM Tris-HCl buffer (pH 7.4) containing 120 mM NaCl, 5 mM KCl, 5 mM MgCl2, 1 mM EDTA, 0.3 nM [^3H]spiperone and increasing concentrations of the competing drugs. Nonspecific binding is determined in the presence of 10 μM (+)butaclamol. After incubation, the samples are filtered rapidly under vacuum through glass fiber filters (GF/B, Packard) and rinsed several times with ice-cold 50 mM Tris-HCl using a cell harvester (Packard). Bound radioactivity is measured with a scintillation counter (Topcount, Packard) using a liquid scintillation cocktail (Microscint 0, Packard). The reference compound for this assay is clozapine.

In data set [1] the target is T2, norepinephrine uptake by rat hypothalamus synaptosomes (Rattus norvegicus, UniProt Q63380).
T2 construct: tissue Cerep; host or cells: male Wistar rat hypothalamus synaptosomes
T2 sequence (Q63380 1-617): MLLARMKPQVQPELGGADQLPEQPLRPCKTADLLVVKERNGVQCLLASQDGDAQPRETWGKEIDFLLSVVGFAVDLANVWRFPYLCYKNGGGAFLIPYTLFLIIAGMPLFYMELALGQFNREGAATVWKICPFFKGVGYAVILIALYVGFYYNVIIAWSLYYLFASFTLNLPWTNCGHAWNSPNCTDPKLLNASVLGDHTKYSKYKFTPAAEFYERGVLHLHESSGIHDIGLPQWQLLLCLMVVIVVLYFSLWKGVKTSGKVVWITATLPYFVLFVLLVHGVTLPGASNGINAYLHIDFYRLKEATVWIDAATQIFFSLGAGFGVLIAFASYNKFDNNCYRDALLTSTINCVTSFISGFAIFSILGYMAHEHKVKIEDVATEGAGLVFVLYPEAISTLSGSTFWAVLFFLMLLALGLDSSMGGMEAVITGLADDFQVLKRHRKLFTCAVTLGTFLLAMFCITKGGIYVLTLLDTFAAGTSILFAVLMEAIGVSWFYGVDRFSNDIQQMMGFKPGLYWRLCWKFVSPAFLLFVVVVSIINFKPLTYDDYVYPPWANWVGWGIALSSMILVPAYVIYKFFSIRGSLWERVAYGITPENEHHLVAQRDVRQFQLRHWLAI
The experiment in a line: Norepinephrine uptake functional assay. The following applies: [3H]-norepinephrine, read-out: Monoamine Neuronal Transport NE uptake (IC50). Type of data set: biochemical. The method, then: Norepinephrine uptake functional assay
Characterization of norepinephrine uptake is performed using synaptosomes isolated at Cerep in a 0.32 M sucrose buffer from a male Wistar rat hypothalamus. The uptake of radiolabeled norepinephrine by synaptosomes (100 μg of proteins/point) is allowed by incubating them for 20 minutes at 37° C. in presence of test compounds and [3H]-norepinephrine (0.1 μCi/point). The experiment is performed in a deep well.
Synaptosomes and [3H]-norepinephrine are prepared in a Krebs buffer pH 7.4 containing 25 mM NaHCO3, 11 mM glucose and 50 μM ascorbic acid. This incubation buffer is oxygenated during 5 minutes before incubation. Basal control is incubated for 20 minutes at 4° C. in order to avoid any uptake. Following this incubation the uptake is stopped by filtration through an “unifilter 96-wells GFB” Packard plate washed with Krebs buffer containing 25 mM NaHCO3 in order to eliminate the free [3H]-norepinephrine. The radioactivity associated to the synaptosomes retained onto the unifilter corresponding to the uptake is then measured with a microplate scintillation counter Topcount, Packard using a scintillation liquid microscint 0, Packard.
[See Perovics and Müiller, op.cit. (1995).]

For data set [2] the following is noted: AUC and Cmax increasing more than proportionally with dose and upon multiple dosing; cited from earlier work.
For the next data set, the target named is T3, 5-HT7 (Homo sapiens, UniProt P34969).
T3 construct: host or cells: membrane preparations
T3 sequence (P34969 whole entry, species assumed): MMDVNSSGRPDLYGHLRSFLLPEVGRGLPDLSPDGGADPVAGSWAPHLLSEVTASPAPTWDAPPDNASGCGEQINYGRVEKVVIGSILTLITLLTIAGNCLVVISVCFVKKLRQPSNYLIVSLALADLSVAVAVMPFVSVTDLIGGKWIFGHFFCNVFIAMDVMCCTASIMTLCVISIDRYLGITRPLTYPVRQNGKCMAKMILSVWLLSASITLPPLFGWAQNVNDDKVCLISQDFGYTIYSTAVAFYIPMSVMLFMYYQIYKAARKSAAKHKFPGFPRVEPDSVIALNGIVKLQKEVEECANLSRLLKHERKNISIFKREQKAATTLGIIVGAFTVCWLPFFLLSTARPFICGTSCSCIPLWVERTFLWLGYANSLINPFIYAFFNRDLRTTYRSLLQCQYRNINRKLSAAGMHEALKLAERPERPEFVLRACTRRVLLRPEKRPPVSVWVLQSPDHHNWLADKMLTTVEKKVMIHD
The experiment in a line: 5-HT7 receptor binding. Conditions: read-out: Serotonin Receptor Binding 5-HT7 (IC50). The method, then:
as §1

The next data set concerns the target α1 Receptor. The experiment in a line: α1 receptor binding. Conditions: read-out: α1 Receptor Binding Alpha1 (IC50).
The next data set addresses T4, Human 5-HT2C receptor (Homo sapiens, UniProt P28335).
T4 construct: expressed in transfected cells; host or cells: CHO cells
T4 sequence (P28335 33-458): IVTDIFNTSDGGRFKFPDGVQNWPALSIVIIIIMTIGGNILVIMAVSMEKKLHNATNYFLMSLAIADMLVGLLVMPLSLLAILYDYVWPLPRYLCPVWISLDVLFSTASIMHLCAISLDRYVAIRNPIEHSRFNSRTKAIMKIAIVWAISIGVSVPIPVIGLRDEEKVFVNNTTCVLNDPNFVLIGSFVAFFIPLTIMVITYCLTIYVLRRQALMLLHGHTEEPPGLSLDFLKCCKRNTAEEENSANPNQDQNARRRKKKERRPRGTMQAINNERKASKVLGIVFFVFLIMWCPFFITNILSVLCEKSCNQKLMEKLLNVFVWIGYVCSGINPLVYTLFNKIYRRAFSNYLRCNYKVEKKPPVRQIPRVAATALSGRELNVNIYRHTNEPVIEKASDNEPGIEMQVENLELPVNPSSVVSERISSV
Nature of the data set: 5-HT2C receptor binding. The following applies: [3H]mesulergine, transfected CHO cell membranes; read-out: Serotonin Receptor Binding 5HT2C (IC50). As to the method:
as §1
Aliquots of transfected CHO cell membrane preparations corresponding to 5-10 μg protein are incubated for 30 min at 37° C. in 250 μl of 50 mM Tris-HCl buffer (pH 7.7) containing 10 μM pargyline, 0.7 nM [^3H]mesulergine and increasing concentrations of the competing drugs. Nonspecific binding is determined in the presence of 1 μM mesulergine. After incubation, the samples are filtered rapidly under vacuum through glass fiber filters (GF/B, Packard) and rinsed several times with ice-cold 50 mM Tris-HCl using a cell harvester (Packard). Bound radioactivity is measured with a scintillation counter (Topcount, Packard) using a liquid scintillation cocktail (Microscint 0, Packard). The reference compound for this assay is mesulergine.

For the next data set, the target named is T5, D3 (Homo sapiens, UniProt P35462).
T5 construct: host or cells: membrane preparations
T5 sequence (P35462 whole entry): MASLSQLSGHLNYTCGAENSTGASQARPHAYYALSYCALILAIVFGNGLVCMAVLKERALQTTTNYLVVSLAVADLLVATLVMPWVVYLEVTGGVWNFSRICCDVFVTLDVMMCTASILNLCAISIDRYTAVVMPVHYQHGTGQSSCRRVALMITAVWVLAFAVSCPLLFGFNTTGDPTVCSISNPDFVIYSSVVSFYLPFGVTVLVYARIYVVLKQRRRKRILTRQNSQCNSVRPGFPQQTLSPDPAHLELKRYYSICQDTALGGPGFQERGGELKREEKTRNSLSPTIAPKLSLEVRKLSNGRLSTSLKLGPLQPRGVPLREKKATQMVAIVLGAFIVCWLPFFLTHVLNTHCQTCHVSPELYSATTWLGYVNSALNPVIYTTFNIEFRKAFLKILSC
The experiment in a line: Dopamine D3 receptor binding. As to the method: as §1

The subject of data set [3] is 5-HT2 receptors versus dopamine receptors. The experiment in a line: Selectivity from dopamine and serotonin receptor binding data. The following applies: compared with nefazodone or S-hydroxynefazodone. The method, then:
as §1

One may read the IC50 as the concentration at which inhibition is half-maximal.

For `CC(O)c1nn(CCCN2CCN(c3cccc(Cl)c3)CC2)c(=O)n1CCOc1ccccc1` (racemic) [(RS)-OH, 2-[3-[4-(3-chlorophenyl)1-piperazinyl]propyl]-5-(1-hydroxyethyl)-2,4-dihydro-4-(phenoxyethyl)-3H-1,2,4-triazol-3-one, reference compound], the IC50 was determined as 1.31 µM at Human D4.4 receptor; 1 µM in data set [1]; 0.061 µM at 5-HT7; 0.381 µM on α1 Receptor; 0.046 µM on Human 5-HT2C receptor; 2.56 µM at D3. For the same molecule, in data set [2], the “kinetics for dose and time (AUC and Cmax)” value was “nonlinear kinetics”.

For the molecule `C[C@@H](O)c1nn(CCCN2CCN(c3cccc(Cl)c3)CC2)c(=O)n1CCOc1ccccc1` [(R)-OH, (R)-hydroxynefazodone], the IC50 on Human D4.4 receptor stood at 1.91 µM; in data set [1], 1.2 µM; at 5-HT7, 0.071 µM; on α1 Receptor it was 0.367 µM; on Human 5-HT2C receptor, 0.033 µM; at D3 it was 3.49 µM. The “selectivity for 5-HT family of receptors, in particular 5-HT2, versus dopamine receptors (D2 and D4)” value in data set [3] is reported as “interacts more selectively”.

On to `C[C@H](O)c1nn(CCCN2CCN(c3cccc(Cl)c3)CC2)c(=O)n1CCOc1ccccc1` [(S)-OH, (S)-2-{3-[4-(3-Chlorophenyl)-1-piperazinyl]propyl}-4-(2-phenoxyethyl)-5-[1-(hydroxy)-ethyl]-2,4-dihydro-[1,2,4]triazol-3-one], for which the IC50 at Human D4.4 receptor is 0.994 µM; in data set [1] it was 1.5 µM; at 5-HT7, 0.06 µM; on α1 Receptor, 0.419 µM; at Human 5-HT2C receptor it was 0.034 µM; at D3, 1.91 µM.
